Experimental data as given in patent US20050234046A1 (Kalypsys, Inc., priority 2004, published 2005).
pEC50: −log10 of the molar value.

Columns and labels:
Test in all cases: Transient transfection (transactivation) assay in CV-1 cells, GAL4-PPAR chimera, luciferase reporter
Type in all cases: cell-based
PPAR gamma = target: T1, PPAR gamma (Homo sapiens, UniProt P37231)
T1 construct: expressed in transfected cells; host or cells: CV-1 cells
T1 sequence (P37231 238-503 limits assumed): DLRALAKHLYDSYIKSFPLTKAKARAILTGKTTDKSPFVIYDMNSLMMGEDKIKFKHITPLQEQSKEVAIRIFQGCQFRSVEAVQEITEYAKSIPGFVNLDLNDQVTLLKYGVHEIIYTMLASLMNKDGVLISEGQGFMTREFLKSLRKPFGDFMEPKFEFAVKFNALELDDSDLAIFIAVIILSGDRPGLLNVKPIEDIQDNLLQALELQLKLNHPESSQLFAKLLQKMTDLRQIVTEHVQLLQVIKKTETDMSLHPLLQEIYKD

PPAR delta = target: T2, PPAR delta (Homo sapiens, UniProt Q03181)
T2 construct: expressed in transfected cells; host or cells: CV-1 cells
T2 sequence (Q03181 211-439 limits assumed): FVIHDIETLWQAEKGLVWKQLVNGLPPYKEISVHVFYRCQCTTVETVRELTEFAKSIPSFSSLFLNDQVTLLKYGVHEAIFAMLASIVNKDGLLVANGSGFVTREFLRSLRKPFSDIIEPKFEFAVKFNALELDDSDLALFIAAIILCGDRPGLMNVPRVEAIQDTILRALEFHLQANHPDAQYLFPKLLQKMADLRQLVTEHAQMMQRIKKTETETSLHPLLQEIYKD
Text: Compounds may be screened for functional potency in transient transfection assays in CV-1 cells or other cell types for their ability to activate the PPAR subtypes (transactivation assay). A previously established chimeric receptor system was utilized to allow comparison of the relative transcriptional activity of the receptor subtypes on the same synthetic response element and to prevent endogenous receptor activation from complicating the interpretation of results. […] The ligand binding domains for murine and human PPAR-alpha, PPAR-gamma, and PPAR-delta are each fused to the yeast transcription factor GAL4 DNA binding domain. CV-1 cells were transiently transfected with expression vectors for the respective PPAR chimera along with a reporter construct containing four or five copies of the GAL4 DNA binding site driving expression of luciferase. After 8-16 h, the cells are replated into multi-well assay plates and the media is exchanged to phenol-red free DME medium supplemented with 5% delipidated calf serum. 4 hours after replating, cells were treated with either compounds or 1% DMSO for 20-24 hours. Luciferase activity was then assayed with Britelite (Perkin Elmer) following the manufacturer's protocol and measured with either the Perkin Elmer Viewlux or Molecular Devices Acquest Xsee, for example, Kliewer, S. A., et. al. Cell 1995, 83, 813-819). Rosiglitazone is used as a positive control in the hPPAR-γ assay. Wy-14643 and GW7647 is used as a positive control in the hPPAR-α assay. GW501516 is used as the positive control in the hPPAR-δ assay.

PPAR alpha = target: T3, PPAR alpha (Homo sapiens, UniProt Q07869)
T3 construct: expressed in transfected cells; host or cells: CV-1 cells
T3 sequence (Q07869 239-466 limits assumed): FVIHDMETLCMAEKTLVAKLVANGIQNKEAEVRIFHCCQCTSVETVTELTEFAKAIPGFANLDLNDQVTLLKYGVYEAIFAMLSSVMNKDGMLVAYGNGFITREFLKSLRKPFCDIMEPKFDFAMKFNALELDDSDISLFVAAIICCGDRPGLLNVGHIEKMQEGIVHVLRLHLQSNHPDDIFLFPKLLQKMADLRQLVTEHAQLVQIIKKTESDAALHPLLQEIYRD
Text: Compounds may be screened for functional potency in transient transfection assays in CV-1 cells or other cell types for their ability to activate the PPAR subtypes (transactivation assay). A previously established chimeric receptor system was utilized to allow comparison of the relative transcriptional activity of the receptor subtypes on the same synthetic response element and to prevent endogenous receptor activation from complicating the interpretation of results. See, for example; Lehmann, J. M.; Moore, L. B.; Smith-Oliver, T. A; Wilkinson, W. O.; Willson, T. M.; Kliewer, S. A., An antidiabetic thiazolidinedione is a high affinity ligand for peroxisome proliferatur-activated receptor γ (PPARγ), J. Biol. Chem., 1995, 270, 12953-6. The ligand binding domains for murine and human PPAR-alpha, PPAR-gamma, and PPAR-delta are each fused to the yeast transcription factor GAL4 DNA binding domain. CV-1 cells were transiently transfected with expression vectors for the respective PPAR chimera along with a reporter construct containing four or five copies of the GAL4 DNA binding site driving expression of luciferase. After 8-16 h, the cells are replated into multi-well assay plates and the media is exchanged to phenol-red free DME medium supplemented with 5% delipidated calf serum. 4 hours after replating, cells were treated with either compounds or 1% DMSO for 20-24 hours. Luciferase activity was then assayed with Britelite (Perkin Elmer) following the manufacturer's protocol and measured with either the Perkin Elmer Viewlux or Molecular Devices Acquest Xsee, for example, Kliewer, S. A., et. al. Cell 1995, 83, 813-819). Rosiglitazone is used as a positive control in the hPPAR-γ assay. Wy-14643 and GW7647 is used as a positive control in the hPPAR-α assay. GW501516 is used as the positive control in the hPPAR-δ assay.
Compounds of Examples 1-233 were assayed to measure their biological activity with respect to their EC50 values and efficacy for modulating PPAR-alpha, PPAR-gamma, and PPAR-delta as set forth in Table 3.

| SMILES | pEC50 (PPAR gamma) | PPAR delta EC50 (PPAR delta) | pEC50 (PPAR alpha) | pEC50 (PPAR delta) | PPAR gamma EC50 (PPAR gamma) |
| --- | --- | --- | --- | --- | --- |
| Cc1ccc(S(=O)(=O)N2CCC(c3ccc(C(F)(F)F)cc3)CC2)cc1CC(=O)O [Example 48, {2-Methyl-5-[4-(4-trifluoromethyl-phenyl)-piperidine-1-sulfonyl]-phenyl}-acetic acid] | 4.00 to 5.30 | B/C | < 4.00 |  |  |
| Cc1ccc(S(=O)(=O)N2CCC(c3ccc(Cl)c(Cl)c3)CC2)cc1CC(=O)O [Example 49, {5-[4-(3,4-Dichloro-phenyl)-piperidine-1-sulfonyl]-2-methyl-phenyl)-acetic acid] | 4.00 to 5.30 |  | < 4.00 | 4.00 to 5.30 |  |
| Cc1ccc(S(=O)(=O)N2CCN(c3nc(Cl)cs3)CC2)cc1CC(=O)O [Example 50, {5-[4-(4-Chloro-thiazol-2-yl)-piperazine-1-sulfonyl]-2-methyl-phenyl}-acetic acid] | 4.00 to 5.30 |  | < 4.00 | 4.00 to 5.30 |  |
| Cc1ccc(S(=O)(=O)N2CCN(c3nc(Cl)c(Cl)s3)CC2)cc1CC(=O)O [Example 51, {5-[4-(4,5-Dichloro-thiazol-2-yl)-piperazine-1-sulfonyl]-2-methyl-phenyl}-acetic acid] | > 5.30 |  | 4.00 to 5.30 | > 5.30 |  |
| Cc1ccc(S(=O)(=O)N2CCN(c3nc(C(F)(F)F)cs3)CC2)cc1CC(=O)O [Example 53, {2-Methyl-5-[4-(4-trifluoromethyl-thiazol-2-yl)-piperazine-1-sulfonyl]-phenyl}-acetic acid] | 4.00 to 5.30 |  | < 4.00 | 4.00 to 5.30 |  |
| Cc1ccc(S(=O)(=O)N2CCN(c3ncc(C(F)(F)F)cc3Cl)CC2)cc1CC(=O)O [Example 54, {5-[4-(3-Chloro-5-trifluoromethyl-pyridin-2-yl)-piperazine-1-sulfonyl]-2-methyl-phenyl}-acetic acid] | > 5.30 |  | > 5.30 | > 5.30 |  |
| Cc1ccc(S(=O)(=O)N2CCN(c3ncc(Br)s3)CC2)cc1CC(=O)O [Example 55, {5-[4-(5-Bromo-thiazol-2-yl)-piperazine-1-sulfonyl]-2-methyl-phenyl}-acetic acid] | 4.00 to 5.30 |  | 4.00 to 5.30 | > 5.30 |  |
| Cc1ccc(S(=O)(=O)N2CCN(c3ccc([N+](=O)[O-])cn3)CC2)cc1CC(=O)O [Example 56, {2-Methyl-5-[4-(5-nitro-pyridin-2-yl)-piperazine-1-sulfonyl]-phenyl}-acetic acid] | 4.00 to 5.30 |  | < 4.00 | > 5.30 |  |
| Cc1ccc(S(=O)(=O)N2CCN(c3ncc(Cl)cn3)CC2)cc1CC(=O)O [Example 57, {5-[4-(5-Chloro-pyrimidin-2-yl)-piperazine-1-sulfonyl]-2-methyl-phenyl}-acetic acid] | > 5.30 |  | 4.00 to 5.30 | > 5.30 |  |
| Cc1ccc(S(=O)(=O)N2CCN(c3ncc(Br)cn3)CC2)cc1CC(=O)O [Example 58, {5-[4-(5-Bromo-pyrimidin-2-yl)-piperazine-1-sulfonyl]-2-methyl-phenyl}-acetic acid] | > 5.30 |  | 4.00 to 5.30 | > 5.30 |  |
| Cc1ccc(S(=O)(=O)N2CCN(c3ncc(C(F)(F)F)cn3)CC2)cc1CC(=O)O [Example 59, {2-Methyl-5-[4-(5-trifluoromethyl-pyrimidin-2-yl)-piperazine-1-sulfonyl]-phenyl}-acetic acid] | > 5.30 |  | > 5.30 | > 5.30 |  |
| Cc1ccc(S(=O)(=O)N2CCN(c3ccc(Br)cn3)CC2)cc1CC(=O)O [Example 61, {5-[4-(5-Bromo-pyridin-2-yl)-piperazine-1-sulfonyl]-2-methyl-phenyl}-acetic acid] | > 5.30 |  | < 4.00 | > 5.30 |  |
| Cc1ccc(S(=O)(=O)N2CCN(c3ccc(Cl)cn3)CC2)cc1CC(=O)O [Example 62, {5-[4-(5-Chloro-pyridin-2-yl)-piperazine-1-sulfonyl]-2-methyl-phenyl}-acetic acid] |  |  | < 4.00 | > 5.30 | B/C |
| Cc1ccc(S(=O)(=O)N2CCN(c3ncc(F)cn3)CC2)cc1CC(=O)O [Example 63, {5-[4-(5-Fluoro-pyrimidin-2-yl)-piperazine-1-sulfonyl]-2-methyl-phenyl}-acetic acid] | 4.00 to 5.30 |  | < 4.00 | > 5.30 |  |
| Cc1ccc(S(=O)(=O)N2CCN(c3nc(Cl)ncc3F)CC2)cc1CC(=O)O [Example 64, {5-[4-(2-Chloro-5-fluoro-pyrimidin-4-yl)-piperazine-1-sulfonyl]-2-methyl-phenyl}-acetic acid] | 4.00 to 5.30 |  | < 4.00 | < 4.00 |  |
| Cc1ccc(S(=O)(=O)N2CC=C(c3ccc(C(F)(F)F)cn3)CC2)cc1CC(=O)O [Example 66, [2-Methyl-5-(5-trifluoromethyl-3′,6′-dihydro-2^1H-[2,4′]bipyridinyl-1′-sulfonyl)-phenyl]-acetic acid] | < 4.00 |  | 4.00 to 5.30 | > 5.30 |  |
| Cc1ccc(S(=O)(=O)N2[C@H](C)CN(c3ccc(C(F)(F)F)c(F)c3)C[C@@H]2C)cc1CC(=O)O [Example 68, {5-[4-(3-Fluoro-4-trifluoromethyl-phenyl)-2,6-dimethyl-piperazine-1-sulfonyl]-2-methyl-phenyl}-acetic acid] | 4.00 to 5.30 |  | > 5.30 | > 5.30 |  |
| Cc1ccc(S(=O)(=O)N2CCN(c3ccc(C(F)(F)F)cn3)[C@@H](C)C2)cc1CC(=O)O [Example 70, {2-Methyl-5-[(S)-3-methyl-4-(5-trifluoromethyl-pyridin-2-yl)-piperazine-1-sulfonyl]-phenyl}-acetic acid] | > 5.30 |  | > 5.30 | > 5.30 |  |
| Cc1ccc(S(=O)(=O)N2C[C@@H](C)N(c3ccc(C(F)(F)F)cn3)[C@@H](C)C2)cc1CC(=O)O [Example 72, {2-Methyl-5-[3,5-dimethyl-4-(5-trifluoromethyl-pyridin-2-yl)-piperazine-1-sulfonyl]-phenyl}-acetic acid] | < 4.00 |  | < 4.00 | 4.00 to 5.30 |  |
| Cc1ccc(S(=O)(=O)N2CCN(c3ccc4occc4c3)CC2C)cc1CC(=O)O (stereo not drawn) [Example 73, [5-(4-Benzofuran-5-yl-2-methyl-piperazine-1-sulfonyl)-2-methyl-phenyl]-acetic acid] | < 4.00 |  | < 4.00 | 4.00 to 5.30 |  |
| Cc1ccc(S(=O)(=O)N2CCN(c3ccc(C(F)(F)F)nn3)CC2)cc1CC(=O)O [Example 74] | < 4.00 |  | < 4.00 | 4.00 to 5.30 |  |
| COc1ccc(S(=O)(=O)N2CCN(c3ccc(C(F)(F)F)cc3)CC2)cc1CC(=O)O [Example 75, {2-Methoxy-5-[4-(4-trifluoromethyl-phenyl)-piperazine-1-sulfonyl]-phenyl}-acetic acid] | 4.00 to 5.30 |  | < 4.00 | > 5.30 |  |
| COc1ccc(S(=O)(=O)N2CCN(c3ccc(C(F)(F)F)cn3)CC2)cc1CC(=O)O [Example 76, {2-Methoxy-5-[4-(5-trifluoromethyl-pyridin-2-yl)-piperazine-1-sulfonyl]-phenyl}-acetic acid] | 4.00 to 5.30 |  | < 4.00 | > 5.30 |  |
| COc1ccc(S(=O)(=O)N2CCN(c3ccc(C(F)(F)F)cn3)CC2C)cc1CC(=O)O (stereo not drawn) [Example 77, {2-Methoxy-5-[2-methyl-4-(5-trifluoromethyl-pyridin-2-yl)-piperazine-1-sulfonyl]-phenyl}-acetic acid] | 4.00 to 5.30 |  | < 4.00 | > 5.30 |  |
